pKi: −log10 of the molar value.
Columns and labels:
[1] = Bacterial cytotoxicity, strain TA1535; type: cell-based; conditions: Salmonella typhimurium, bacterial tester strain TA1535 without S9, read-out: Cytotoxicity (% of Control Values)
Description: (§1) Supplement prp20002-e00026-sd1.doc, table 4: Table 4.

PBR = target: T1, PBR (Rattus norvegicus, UniProt P16257); test: PDSP primary binding, PBR; conditions: n = 4, read-out: Inhibition (primary binding competition efficacy), PBR
T1 construct: purchased NIMH Psychoactive Drug Screening Program (PDSP)
T1 sequence (P16257 whole entry): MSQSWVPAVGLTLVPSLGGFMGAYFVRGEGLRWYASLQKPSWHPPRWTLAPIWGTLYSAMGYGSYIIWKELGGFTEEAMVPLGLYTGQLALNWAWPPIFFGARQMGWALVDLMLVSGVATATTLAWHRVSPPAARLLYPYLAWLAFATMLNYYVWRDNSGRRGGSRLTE
Experimental: (§2) For experimental details, please refer to the Psychoactive Drug Screening Program (PDSP) web site http://pdsp.med.unc.edu/.
(§3) ^a The default concentration for primary binding experiments is 10 µM (n = 4). ^b Negative inhibition represents a stimulation of binding. ^c BZPR: Benzodiazepine Receptors (rat brain site). ^d DOR: Delta Opioid Receptor; KOR: Kappa Opioid Receptor; MOR: Mu Opioid Receptor. ^e DAT: Dopamine Transporter; NET: Norepinephrine Transporter; SERT: Serotonin Transporter. ^f NMDA: N-methyl-D-aspartate receptor.

5-HT7 = target: T2, 5-HT7 (Homo sapiens, UniProt P34969); test: PDSP primary binding, 5-HT7; conditions: n = 4, read-out: Inhibition (primary binding competition efficacy), 5-HT7
T2 construct: purchased NIMH Psychoactive Drug Screening Program (PDSP)
T2 sequence (P34969 whole entry): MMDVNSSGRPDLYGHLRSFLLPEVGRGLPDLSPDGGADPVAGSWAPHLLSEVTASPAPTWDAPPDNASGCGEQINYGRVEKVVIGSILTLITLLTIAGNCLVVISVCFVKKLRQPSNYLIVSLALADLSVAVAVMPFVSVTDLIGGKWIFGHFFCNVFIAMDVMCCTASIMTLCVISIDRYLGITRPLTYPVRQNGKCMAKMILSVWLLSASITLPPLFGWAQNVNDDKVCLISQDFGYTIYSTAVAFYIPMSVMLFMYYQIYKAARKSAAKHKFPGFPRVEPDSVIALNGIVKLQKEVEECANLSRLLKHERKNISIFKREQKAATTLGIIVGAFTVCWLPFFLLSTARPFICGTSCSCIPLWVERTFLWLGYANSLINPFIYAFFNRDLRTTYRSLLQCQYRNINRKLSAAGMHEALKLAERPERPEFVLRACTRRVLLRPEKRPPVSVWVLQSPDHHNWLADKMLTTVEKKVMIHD
Experimental: as §2, §3

5-HT4 = target: T3, 5-HT4 (Homo sapiens, UniProt Q13639); test: PDSP primary binding, 5-HT4; conditions: n = 4, read-out: Inhibition (primary binding competition efficacy), 5-HT4
T3 construct: purchased NIMH Psychoactive Drug Screening Program (PDSP)
T3 sequence (Q13639 whole entry): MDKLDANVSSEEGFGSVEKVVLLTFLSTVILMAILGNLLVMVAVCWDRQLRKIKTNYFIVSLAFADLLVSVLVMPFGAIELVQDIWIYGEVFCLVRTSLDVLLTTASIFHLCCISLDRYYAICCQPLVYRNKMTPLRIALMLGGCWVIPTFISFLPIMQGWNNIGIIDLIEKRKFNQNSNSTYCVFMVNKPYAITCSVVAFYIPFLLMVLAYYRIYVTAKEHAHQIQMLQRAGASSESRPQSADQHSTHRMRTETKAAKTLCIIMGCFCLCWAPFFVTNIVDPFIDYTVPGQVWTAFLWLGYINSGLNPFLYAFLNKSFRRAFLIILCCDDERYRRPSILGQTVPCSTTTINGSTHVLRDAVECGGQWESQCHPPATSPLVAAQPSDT
Experimental: as §2, §3

strain TA1535 = test: Ames test, strain TA1535; type: cell-based
MOR: Mu Opioid Receptor = target: T4, MOR: Mu Opioid Receptor (Homo sapiens, UniProt P35372); test: PDSP primary binding, MOR; conditions: n = 4, read-out: Inhibition (primary binding competition efficacy), MOR
T4 construct: purchased NIMH Psychoactive Drug Screening Program (PDSP)
T4 sequence (P35372 whole entry): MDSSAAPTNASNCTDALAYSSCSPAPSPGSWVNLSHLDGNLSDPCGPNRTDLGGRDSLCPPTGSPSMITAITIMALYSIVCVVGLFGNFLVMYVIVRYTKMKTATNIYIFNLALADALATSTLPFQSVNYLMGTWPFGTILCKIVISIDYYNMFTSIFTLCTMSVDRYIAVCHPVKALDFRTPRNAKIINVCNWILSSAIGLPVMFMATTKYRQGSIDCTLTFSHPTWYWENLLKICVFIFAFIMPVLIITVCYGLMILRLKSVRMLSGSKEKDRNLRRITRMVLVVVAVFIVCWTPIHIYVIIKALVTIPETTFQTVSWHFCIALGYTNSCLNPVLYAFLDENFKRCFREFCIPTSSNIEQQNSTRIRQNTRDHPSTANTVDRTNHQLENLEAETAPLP
Experimental: as §2, §3

α1A adrenergic receptor = target: T5, α1A adrenergic receptor (Homo sapiens, UniProt P35348); test: PDSP primary binding, α1A; conditions: n = 4, read-out: Inhibition (primary binding competition efficacy), α1A
T5 construct: purchased NIMH Psychoactive Drug Screening Program (PDSP)
Experimental: as §2, §3

CYP2C19 = target: T6, CYP2C19 (Homo sapiens, UniProt P33261); test: CYP2C19 inhibition, HLM, omeprazole substrate; type: in vitro ADME; conditions: 1.0E-05 M
T6 construct: from tissue; host or cells: human liver microsomes (HLM)
T6 sequence (P33261 whole entry): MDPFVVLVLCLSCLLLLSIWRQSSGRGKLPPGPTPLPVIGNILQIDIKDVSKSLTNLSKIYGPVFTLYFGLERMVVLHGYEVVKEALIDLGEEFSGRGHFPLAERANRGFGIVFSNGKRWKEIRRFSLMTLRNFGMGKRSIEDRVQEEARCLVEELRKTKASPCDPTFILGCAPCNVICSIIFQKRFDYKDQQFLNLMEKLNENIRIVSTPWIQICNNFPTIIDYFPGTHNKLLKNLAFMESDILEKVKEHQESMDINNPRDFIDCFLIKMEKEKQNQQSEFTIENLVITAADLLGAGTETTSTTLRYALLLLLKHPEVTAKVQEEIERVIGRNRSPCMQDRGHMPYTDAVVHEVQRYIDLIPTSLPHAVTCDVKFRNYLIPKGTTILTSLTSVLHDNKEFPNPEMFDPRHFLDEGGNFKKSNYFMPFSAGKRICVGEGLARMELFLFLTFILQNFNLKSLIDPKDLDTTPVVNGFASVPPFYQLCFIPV
Description: (§4) Supplement prp20002-e00026-sd1.doc, table 3: Table 3.

D3 dopamine receptor = target: T7, D3 dopamine receptor (Homo sapiens, UniProt P35462); test: PDSP primary binding, D3; conditions: n = 4, read-out: Inhibition (primary binding competition efficacy), D3
T7 construct: purchased NIMH Psychoactive Drug Screening Program (PDSP)
Experimental: as §2, §3

[2] = Plasma and brain levels after NSF (UHPLC-MS-MS); type: in vivo, mouse
Experimental: The chamber floor is covered with bedding (∼0.5″). […] Samples are stored at −80°C until analysis.
Compound LF-3-99 (10 ng/mL, See Fig. S1 for structure) was used as an internal standard.

CYP1A = target: T8, CYP1A (Homo sapiens, UniProt P05177); test: CYP1A inhibition, HLM, phenacetin substrate; type: in vitro ADME; conditions: 1.0E-05 M
T8 construct: from tissue; host or cells: human liver microsomes (HLM)
T8 sequence (P05177 2-516 limits assumed): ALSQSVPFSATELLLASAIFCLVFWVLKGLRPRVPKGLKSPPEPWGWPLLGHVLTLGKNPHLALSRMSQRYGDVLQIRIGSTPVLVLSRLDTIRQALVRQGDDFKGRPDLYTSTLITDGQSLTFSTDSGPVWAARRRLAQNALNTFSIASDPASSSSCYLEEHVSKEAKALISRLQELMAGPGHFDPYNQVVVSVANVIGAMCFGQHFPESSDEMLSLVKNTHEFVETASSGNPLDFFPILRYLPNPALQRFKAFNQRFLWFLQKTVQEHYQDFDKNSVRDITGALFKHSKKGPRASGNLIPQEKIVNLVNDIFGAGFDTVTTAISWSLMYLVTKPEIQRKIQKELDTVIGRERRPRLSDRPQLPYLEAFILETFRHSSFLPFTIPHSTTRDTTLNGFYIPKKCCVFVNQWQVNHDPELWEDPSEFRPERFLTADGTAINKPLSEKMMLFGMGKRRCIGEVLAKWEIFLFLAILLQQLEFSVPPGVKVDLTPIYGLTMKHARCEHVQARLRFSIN
Description: as §4

GABAA = test: PDSP primary binding, GABAA; conditions: 10 µM, n = 4
Experimental: as §2, §3

α7* nAChR = conditions: ref Yu et al. [2012], cited from earlier work
[3] = Metabolic stability, cryopreserved hepatocytes, human; type: in vitro ADME; conditions: 1.0E-06 M, 2 h
strain TA98 = test: Ames test, strain TA98; type: cell-based
[4] = system: NMDA: N-methyl-D-aspartate receptor; test: PDSP primary binding, NMDA; conditions: 10 µM, n = 4
Experimental: as §2, §3

[5] = Bacterial cytotoxicity, strain TA98; type: cell-based; conditions: Salmonella typhimurium, bacterial tester strain TA98 without S9, read-out: Cytotoxicity (% of Control Values)
Description: as §1

α1D adrenergic receptor = target: T9, α1D adrenergic receptor (Homo sapiens, UniProt P25100); test: PDSP primary binding, α1D; conditions: n = 4, read-out: Inhibition (primary binding competition efficacy), α1D
T9 construct: purchased NIMH Psychoactive Drug Screening Program (PDSP)
T9 sequence (P25100 whole entry): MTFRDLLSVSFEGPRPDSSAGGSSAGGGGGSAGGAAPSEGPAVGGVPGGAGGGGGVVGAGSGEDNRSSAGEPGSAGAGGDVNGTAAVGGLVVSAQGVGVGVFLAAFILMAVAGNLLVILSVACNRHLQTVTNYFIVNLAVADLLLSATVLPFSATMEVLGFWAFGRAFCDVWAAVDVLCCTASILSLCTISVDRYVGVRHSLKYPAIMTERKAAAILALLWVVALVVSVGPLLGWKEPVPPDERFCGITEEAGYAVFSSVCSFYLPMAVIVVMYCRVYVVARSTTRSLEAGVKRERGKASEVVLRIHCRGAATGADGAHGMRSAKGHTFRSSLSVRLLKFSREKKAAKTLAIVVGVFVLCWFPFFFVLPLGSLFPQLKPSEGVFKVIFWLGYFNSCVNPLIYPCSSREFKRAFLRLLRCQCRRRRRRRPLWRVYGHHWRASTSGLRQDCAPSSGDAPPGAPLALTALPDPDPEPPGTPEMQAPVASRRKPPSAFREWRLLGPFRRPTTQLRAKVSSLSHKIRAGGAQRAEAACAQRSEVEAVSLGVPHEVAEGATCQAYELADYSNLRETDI
Experimental: as §2, §3

C57/BL6J mice = test: Preliminary acute maximum tolerated dose study; type: in vivo, mouse
5-HT1D = target: T10, 5-HT1D (Homo sapiens, UniProt P28221); test: PDSP primary binding, 5-HT1D; conditions: n = 4, read-out: Inhibition (primary binding competition efficacy), 5-HT1D
T10 construct: purchased NIMH Psychoactive Drug Screening Program (PDSP)
T10 sequence (P28221 whole entry): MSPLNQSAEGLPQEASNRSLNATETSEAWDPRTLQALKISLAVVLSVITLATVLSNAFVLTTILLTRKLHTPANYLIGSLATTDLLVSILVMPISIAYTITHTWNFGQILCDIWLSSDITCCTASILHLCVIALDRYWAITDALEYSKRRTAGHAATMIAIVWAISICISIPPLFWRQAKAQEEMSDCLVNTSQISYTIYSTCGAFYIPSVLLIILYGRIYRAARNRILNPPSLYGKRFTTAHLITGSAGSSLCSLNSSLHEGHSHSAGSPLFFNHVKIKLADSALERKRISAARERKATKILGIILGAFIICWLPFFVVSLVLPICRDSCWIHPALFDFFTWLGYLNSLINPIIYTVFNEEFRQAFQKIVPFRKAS
Experimental: as §2, §3

α2B adrenergic receptor = target: T11, α2B adrenergic receptor (Homo sapiens, UniProt P18089); test: PDSP primary binding, α2B; conditions: n = 4, read-out: Inhibition (primary binding competition efficacy), α2B
T11 construct: purchased NIMH Psychoactive Drug Screening Program (PDSP)
T11 sequence (P18089 whole entry): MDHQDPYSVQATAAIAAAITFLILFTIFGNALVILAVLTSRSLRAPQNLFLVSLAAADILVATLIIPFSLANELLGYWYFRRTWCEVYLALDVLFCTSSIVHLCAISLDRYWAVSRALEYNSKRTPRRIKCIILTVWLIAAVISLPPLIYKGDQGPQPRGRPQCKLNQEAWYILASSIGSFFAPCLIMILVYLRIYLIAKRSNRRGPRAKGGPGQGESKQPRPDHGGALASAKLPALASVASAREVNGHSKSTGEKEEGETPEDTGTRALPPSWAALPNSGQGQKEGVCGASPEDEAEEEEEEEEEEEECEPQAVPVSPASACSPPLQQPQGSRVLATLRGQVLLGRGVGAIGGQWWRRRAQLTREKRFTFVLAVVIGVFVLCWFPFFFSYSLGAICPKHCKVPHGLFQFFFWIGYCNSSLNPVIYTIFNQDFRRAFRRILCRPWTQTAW
Experimental: as §2, §3

β3 adrenergic receptor = target: T12, β3 adrenergic receptor (Homo sapiens, UniProt P13945); test: PDSP primary binding, β3; conditions: n = 4, read-out: Inhibition (primary binding competition efficacy), β3
T12 construct: purchased NIMH Psychoactive Drug Screening Program (PDSP)
T12 sequence (P13945 whole entry): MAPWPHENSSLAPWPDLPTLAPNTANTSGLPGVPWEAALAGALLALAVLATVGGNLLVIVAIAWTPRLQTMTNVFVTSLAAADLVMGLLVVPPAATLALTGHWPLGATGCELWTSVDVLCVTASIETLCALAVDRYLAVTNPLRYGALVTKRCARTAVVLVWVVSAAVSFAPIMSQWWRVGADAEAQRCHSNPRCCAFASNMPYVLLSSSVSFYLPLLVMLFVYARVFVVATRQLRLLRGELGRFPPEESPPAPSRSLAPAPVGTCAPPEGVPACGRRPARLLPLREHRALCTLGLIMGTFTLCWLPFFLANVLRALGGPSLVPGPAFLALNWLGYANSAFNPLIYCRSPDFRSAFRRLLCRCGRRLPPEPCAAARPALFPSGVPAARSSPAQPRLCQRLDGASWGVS
Experimental: as §2, §3

σ 1 sigma receptor = test: PDSP primary binding, σ 1; conditions: 10 µM, n = 4
Experimental: as §2, §3

M3 muscarinic receptor = target: T13, M3 muscarinic receptor (Homo sapiens, UniProt P20309); test: PDSP primary binding, M3; conditions: n = 4, read-out: Inhibition (primary binding competition efficacy), M3
T13 construct: purchased NIMH Psychoactive Drug Screening Program (PDSP)
T13 sequence (P20309 whole entry): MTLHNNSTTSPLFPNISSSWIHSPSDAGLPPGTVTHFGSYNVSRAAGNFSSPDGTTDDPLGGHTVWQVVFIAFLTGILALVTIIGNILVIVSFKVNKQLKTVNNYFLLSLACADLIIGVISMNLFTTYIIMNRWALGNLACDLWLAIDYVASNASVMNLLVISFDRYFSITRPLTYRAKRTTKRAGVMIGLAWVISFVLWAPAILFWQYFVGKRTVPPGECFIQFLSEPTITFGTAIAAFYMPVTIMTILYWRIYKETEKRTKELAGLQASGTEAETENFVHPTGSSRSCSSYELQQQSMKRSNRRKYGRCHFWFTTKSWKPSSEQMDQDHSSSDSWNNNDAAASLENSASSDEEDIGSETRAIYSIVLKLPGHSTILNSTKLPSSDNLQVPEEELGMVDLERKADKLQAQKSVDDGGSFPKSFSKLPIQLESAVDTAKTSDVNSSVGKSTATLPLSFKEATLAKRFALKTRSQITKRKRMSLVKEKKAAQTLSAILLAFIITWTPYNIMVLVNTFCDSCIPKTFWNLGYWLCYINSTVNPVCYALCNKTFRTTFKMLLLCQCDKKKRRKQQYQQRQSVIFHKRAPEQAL
Experimental: as §2, §3

[6] = with or without S9, 5, 10, 50, or 100 μmol/L
[7] = 5 mg/kg p.o., day 29, about 50-60 min after pretreatment

For OCCc1cc(-c2cncc(OC[C@@H]3CCN3)c2)on1 [LF-3-88, 2-[5-[5-(2(S)-azetidinylmethoxyl)-3-pyridyl]-3-isoxazolyl]ethanol], the viability at 0.0001 M ([1]; strain TA1535 – S9, 1.0E-04 M) was 117%, the viability at 10 µM ([1]; strain TA1535 – S9, 1.0E-05 M) was 97% and the viability at 1.25 µM ([1]; strain TA1535 – S9, 1.25E-06 M) was 105%. For the same compound, the viability at 25 µM ([1]; strain TA1535 – S9, 2.5E-05 M) was 104%, the viability at 2.5 µM ([1]; strain TA1535 – S9, 2.5E-06 M) was 102% and the viability at 50 µM ([1]; strain TA1535 – S9, 5.0E-05 M) was 109%. It also gave a viability at 5 µM ([1]; strain TA1535 – S9, 5.0E-06 M) of 100%, a viability at 625 nM ([1]; strain TA1535 – S9, 6.25E-07 M) of 99% and an inhibition at 10 µM (PBR) of -1.5%. The inhibition at 10 µM (5-HT7) was 1.1%, the inhibition at 10 µM (5-HT4) was 3.7% and the “Ames test Result” value (strain TA1535; strain TA1535 + S9, 1.0E-04 M) was “Negative”. For the same compound, the “Ames test Result” value (strain TA1535; strain TA1535 + S9, 1.0E-05 M) was “Negative”, the “Ames test Result” value (strain TA1535; strain TA1535 + S9, 5.0E-05 M) was “Negative” and the “Ames test Result” value (strain TA1535; strain TA1535 + S9, 5.0E-06 M) was “Negative”. The “Ames test Result” value (strain TA1535; strain TA1535 – S9, 1.0E-04 M) was “Negative”, the “Ames test Result” value (strain TA1535; strain TA1535 – S9, 1.0E-05 M) was “Negative” and the “Ames test Result” value (strain TA1535; strain TA1535 – S9, 5.0E-05 M) was “Negative”. For the same compound, the “Ames test Result” value (strain TA1535; strain TA1535 – S9, 5.0E-06 M) was “Negative”, the “mutagenic potential (Ames), TA1535” value (strain TA1535; [6]) was “negative” and the inhibition at 10 µM (MOR: Mu Opioid Receptor) was 5.7%. For the same compound, the inhibition at 10 µM (α1A adrenergic receptor) was -5.5%, the “CYP2C19 Inhibition” value (CYP2C19) was 10% and the inhibition at 10 µM (D3 dopamine receptor) was 3%. It also gave a Plasma level [2, 7] of 430 ± 172 ng/mL, a brain level [2, 7] of 14 ± 4 ng/g and a Plasma level ([2]; 10 mg/kg p.o., day 29) of 942 ± 400 ng/mL. For the same compound, the brain level ([2]; 10 mg/kg p.o., day 29) was 31 ± 11 ng/g, the “CYP1A Inhibition” value (CYP1A) was 13% and the “Inhibition (primary binding competition efficacy), GABAA” value (GABAA) was -7.6%. For the same compound, the pKi (α7* nAChR; Figure 1) was less than 5.00, the “Ki α7*” value (α7* nAChR; rat forebrain, class symbol) was “NA (NA: not active, defined as < 50% binding in the primary assay at 10 μmol/L)” and the “Remaining (metabolic stability)” value [3] was 92%. The “Ames test Result” value (strain TA98; strain TA98 + S9, 1.0E-04 M) was “Negative”, the “Ames test Result” value (strain TA98; strain TA98 + S9, 1.0E-05 M) was “Negative” and the “Ames test Result” value (strain TA98; strain TA98 + S9, 5.0E-05 M) was “Negative”. The “Ames test Result” value (strain TA98; strain TA98 + S9, 5.0E-06 M) was “Negative”, the “Ames test Result” value (strain TA98; strain TA98 – S9, 1.0E-04 M) was “Negative” and the “Ames test Result” value (strain TA98; strain TA98 – S9, 1.0E-05 M) was “Negative”. The “Ames test Result” value (strain TA98; strain TA98 – S9, 5.0E-05 M) was “Negative”, the “Ames test Result” value (strain TA98; strain TA98 – S9, 5.0E-06 M) was “Negative” and the “mutagenic potential (Ames), TA98” value (strain TA98; [6]) was “negative”. For the same compound, the “Inhibition (primary binding competition efficacy), NMDA” value [4] was -4.7%, the viability at 0.0001 M ([5]; strain TA98 – S9, 1.0E-04 M) was 108% and the viability at 10 µM ([5]; strain TA98 – S9, 1.0E-05 M) was 92%. The viability at 1.25 µM ([5]; strain TA98 – S9, 1.25E-06 M) was 95%, the viability at 25 µM ([5]; strain TA98 – S9, 2.5E-05 M) was 94% and the viability at 2.5 µM ([5]; strain TA98 – S9, 2.5E-06 M) was 98%. The viability at 50 µM ([5]; strain TA98 – S9, 5.0E-05 M) was 102%, the viability at 5 µM ([5]; strain TA98 – S9, 5.0E-06 M) was 96% and the viability at 625 nM ([5]; strain TA98 – S9, 6.25E-07 M) was 97%. For the same compound, the inhibition at 10 µM (α1D adrenergic receptor) was -3.4%, the “dose above which temperature and active behaviors temporarily decreased” value (C57/BL6J mice; acute) was “above 100 mg/kg” and the “serious toxic side effects or mortality” value (C57/BL6J mice; up to 300 mg/kg) was “no serious toxic side effects or mortality”. It also gave an inhibition at 10 µM (5-HT1D) of -14.9%, an inhibition at 10 µM (α2B adrenergic receptor) of -17.7% and an inhibition at 10 µM (β3 adrenergic receptor) of 28.3%. For the same compound, the “Inhibition (primary binding competition efficacy), σ 1” value (σ 1 sigma receptor) was 15.8% and the inhibition at 10 µM (M3 muscarinic receptor) was 0.9%.

— article PMC4184702 (Pharmacology Research & Perspectives, 2014)
